{"source": "patent US20250297225A1", "about": "“MULTIPLE HEART TISSUE CULTURE FUSION” (IMBA - INSTITUT FÜR MOLEKULARE BIOTECHNOLOGIE GMBH, priority 2022, published 2025)", "key": {"[1]": {"test_system": "cardioids (LV, RV, OFT, Atria, AVC)", "settings": "for dosage at which severe compartment-specific and stage-specific effects were observed: human", "experimental": "All cardioids were treated with the teratogens from mesoderm induction (day 0) until day 9.5.\nAll cardioids were treated with the teratogens from mesoderm induction (day 0) until day 9.5. *p<0.05, **p<0.01, ***p<0.001, ****p<0.0001.\nhPSCs (WTC or H9 lines) are seeded in a 24-well plate (TPP, #92024) at 30-40 k cells per well in E8 medium+ROCKi (5 μM Y-27632, Tocris #1254). […] The medium contains BSA which is important for efficient cardioid generation. 24 hours after seeding in the 24-well plate, the cells are induced with mesoderm induction media. Mesoderm induction media is made up of CDM containing FGF2 (30 ng/ml, QKine, Cambridge/UK), LY294002 (5 μM, Tocris, #1130), Activin A (specific concentrations for different cardioid subtypes-see below, QKine, Cam-bridge/UK), BMP4 (10 ng/ml, R&D Systems RD-314-BP-050), and CHIR99021 (specific concentrations for different cardioid subtypes—see below, R&D Systems RD-4423/50). After 36-40 hours cells are dissociated with TrypleE (Gibco, #12605010) and seeded in a Corning ultra-low attachment 96 well plate (Corning, #7007) at 15-20 k cells/well in Cardiac Mesoderm Patterning Media One made up of CDM containing ROCK inhibitor and for all protocols besides the LV 1 μg/ml of insulin (Roche, #11376497001) plus specific factors depending on cardioid subtype (see below). After seeding, the cells are spun down in a centrifuge for 4 mins at 200 g. This protocol is termed 2D-3D standard protocol. Alternatively, hPSCs were seeded into Corning ultra-low attachment 96 well plate with a density of 5000 cells/well. Cells were seeded in a volume of 200 ml containing E8+ROCKi and collected by centrifugation for 5 minutes at 200 g. As another option, 2500 cells/well were seeded directly into induction media+ROCKi and collected by centrifugation for 5 minutes at 200 g. For both protocols, cells were induced with mesoderm induction media as described for the 2D->3D protocol. These were termed 3D protocols. For both protocols, 24 hours later (or at day 2.5) the cells are fed with Cardiac Mesoderm Patterning Media One. For the next two days, the medium is changed to Cardiac Mesoderm Patterning Media Two made up of CDM containing specific factors depending on the cardioid subtype (see below) and exchanged every day. For the subsequent two days, media is exchanged every day with Cardiomyocyte Differentiation Media CDM medium containing BMP4 (10 ng/ml), FGF2 (8 ng/ml) and insulin (10 μg/ml). For the subsequent days of culture, media is exchanged every other day with CDM containing insulin (10 μg/ml).\nSpinning disk confocal microscopes (Olympus spinning disk system based on an IX3 Series (IX83) inverted microscope, equipped with a Yokogawa W1 spinning disc) were used to image fixed tissue sections. Live imaging was carried out using an inverted widefield microscope for brightfield and fluorescence (Axioobserver Z1 equipped with an sCMOS camera (Hamamatsu Orca Flash 4). Cardioids in 96-well plates were also imaged using a Celigo Imaging Cytometer microscope (Nexcelom Biosciences, LLC)."}, "[2]": {"test_system": "cardioids (LV, RV, OFT, Atria, AVC)", "experiment": "Real-time qPCR of cardioids treated with teratogens", "assay_type": "cell-based, human", "description": "The isolated RNA was reverse transcribed to cDNA using the Reverse Transcription Kit (Invitrogen, #18080044) with a C100 Touch Bio-Rad Thermal Cycler. Quantitative PCR was performed using the GoTaq qPCR master mix 2× (Promega, #A6001) with a Bio-Rad CFX384 Real-Time thermal cycler. Values of gene expression of each sample were obtained in triplicates. The Log-fold change of the sample from PBGD as a housekeeping gene and a pluripotent stem cell sample for normalization were used."}, "[3]": {"settings": "cited from earlier work"}, "[4]": {"test_system": "FHF and aSHF progenitors / cardioids", "experiment": "Lineage specification of cardiac progenitors/cardioids by retinoic acid dosage", "assay_type": "cell-based, human", "settings": "LV (FHF progenitor), Cardiac Mesoderm Patterning Media One", "description": "These were termed 3D protocols.\nThe retinoic acid concentration should be low as a higher concentration (>100 nM) leads to FHF-derived atria, not ventricular fate.\nThe retinoic acid addition here helps drive the RV identity."}}, "note": "“Also recorded” adds a separate entry of the source."}
{"smiles": "CC(=O)Oc1ccccc1C(=O)O", "note": "[Aspirin]", "values": [{"measurement": "size and TNNI-GFP expression compared to untreated cardioids", "setting": "[1]", "result": "no size and TNNI-GFP expression differences"}, {"measurement": "gene expression differences vs control cardioids", "setting": "[2]; high 30 μM dosage", "result": "no obvious gene expression differences; also recorded: neither observed morphological nor significant gene expression differences"}]}
{"smiles": "O=C1CCC(N2C(=O)c3ccccc3C2=O)C(=O)N1", "note": "(stereo not shown) [thalidomide]", "values": [{"measurement": "human therapeutic plasma concentrations", "setting": "[3]", "result": "~2.4", "unit": "µM"}, {"measurement": "expression of chamber-specific marker NPPA", "setting": "[2]; d9.5 cardioids", "result": "downregulation of the chamber-specific marker NPPA for all lineages except for the RV and OFT"}, {"measurement": "expression of compartment identity markers (NR2F2, IRX1/4)", "setting": "[2]; d9.5 cardioids", "result": "dosage-specific misregulation of compartment identity markers (NR2F2, IRX1/4)"}, {"measurement": "expression of lineage specific genes", "setting": "[2]; d9.5 cardioids, fold change normalized to housekeeping gene and pluripotency", "result": "mis-regulation of lineage specific genes"}]}
{"smiles": "COc1cc(C)c(/C=C/C(C)=C/C=C/C(C)=C/C(=O)O)c(C)c1C", "note": "[Acitretin]", "values": [{"measurement": "CM differentiation and morphology of treated cardioids", "setting": "[1]", "result": "Inefficient CM differentiation and morphological changes"}, {"measurement": "defects in OFT, atrial, and AVC cardioids", "setting": "[1]", "result": "specification, patterning and morphogenesis defects"}, {"measurement": "dosage at which severe compartment-specific and stage-specific effects were observed", "setting": "[1]", "result": 5, "unit": "nM"}]}
{"smiles": "CC1=C(/C=C/C(C)=C/C=C/C(C)=C/CO)C(C)(C)CCC1", "note": "[All trans Retinol]", "values": [{"measurement": "effect on all the other cardioid subtypes", "setting": "[1]", "result": "unaffected"}, {"measurement": "morphological effect on OFT cardioids", "setting": "[1]", "result": "severe morphological effect on OFT cardioids"}, {"measurement": "size difference between treated and untreated cardioids", "setting": "[1]", "result": "no size difference between treated and untreated cardioids within one protocol the except LV cardioids treated with 50 nM"}, {"measurement": "gene expression in OFT cardioids (OFT, ventricular, chamber, atrial genes)", "setting": "[2]; OFT cardioids", "result": "downregulation of OFT and upregulation of ventricular genes"}]}
{"smiles": "CC1=C(/C=C/C(C)=C/C=C/C(C)=C\\C(=O)O)C(C)(C)CCC1", "note": "[Isotretinoin]", "values": [{"measurement": "defects in OFT, atrial, and AVC cardioids", "setting": "[1]", "result": "specification, patterning and morphogenesis defects"}, {"measurement": "dosage at which severe compartment-specific and stage-specific effects were observed", "setting": "[1]", "result": 1, "unit": "nM"}]}
{"smiles": "CC1=C(/C=C/C(C)=C/C=C/C(C)=C/C(=O)O)C(C)(C)CCC1", "note": "[retinoic acid]", "values": [{"measurement": "retinoic acid concentration that leads to FHF-derived atria, not ventricular fate", "setting": "[4]", "result": "> 100", "unit": "nM"}]}
